From patent publication US9835558B2, “Aggregation-induced emission luminogen having an peptide sequence and its uses thereof” (priority 2015, dated 2017)
Residues, ends and D or L forms follow the SMILES beside them. *: point of attachment. X1 = O=C(COc1ccc(C(=C(c2ccccc2)c2ccccc2)c2ccccc2)cc1)*; Palmitoyl = CCCCCCCCCCCCCCCC(=O)*

Assay: cyto-toxicity by MTT assay
Format: cell-based
Details: human, MCF-7 cells; TR4 0.05-50 μM, incubation for 30 min, MCF-7, data not shown; read-out: cellular viability

In the case of CCCCCCCCCCCCCCCC(=O)NCCCC[C@H](NC(=O)COc1ccc(C(=C(c2ccccc2)c2ccccc2)c2ccccc2)cc1)C(=O)N[C@@H](CCCNC(=N)N)C(=O)N[C@@H](CCCNC(=N)N)C(=O)N[C@@H](CCCNC(=N)N)C(=O)N[C@@H](CCCNC(=N)N)C(N)=O [TR4] (X1-K(Palmitoyl)RRRR-NH2), the viability at 0.5 h is reported as > 80%.
